In PubChem BioAssay (NCI):
“And” between values parts separate entries of the source, which are not always exact repeats. Equal values may be shown once.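 Results reflect a 48-hour exposure of cells in 96-well plates to compound at five concentrations. GI50 is the concentration that inhibits growth by half. TGI marks complete inhibition of growth.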

Experiments:
Assay in all cases: NCI anticancer screen, dose series, 48 h
CCRF-CEM leukemia = system: CCRF-CEM leukemia
COLO 205 colon = system: COLO 205 colon
HL-60(TB) leukemia = system: HL-60(TB) leukemia
IGROV1 ovarian = system: IGROV1 ovarian
NCI-H460 lung = system: NCI-H460 lung
OVCAR-3 ovarian = system: OVCAR-3 ovarian
SK-MEL-28 melanoma = system: SK-MEL-28 melanoma
SK-OV-3 ovarian = system: SK-OV-3 ovarian

| Compound | TGI (CCRF-CEM leukemia) | TGI (COLO 205 colon) [µM] | TGI (HL-60(TB) leukemia) [µM] | TGI (IGROV1 ovarian) | TGI (NCI-H460 lung) | TGI (OVCAR-3 ovarian) | TGI (SK-MEL-28 melanoma) [µM] | TGI (SK-OV-3 ovarian) | GI50 (CCRF-CEM leukemia) [nM] | GI50 (COLO 205 colon) [nM] | GI50 (HL-60(TB) leukemia) [nM] | GI50 (IGROV1 ovarian) [nM] | GI50 (NCI-H460 lung) [µM] | GI50 (OVCAR-3 ovarian) [nM] | GI50 (SK-MEL-28 melanoma) [nM] | GI50 (SK-OV-3 ovarian) [nM] |
| --- | --- | --- | --- | --- | --- | --- | --- | --- | --- | --- | --- | --- | --- | --- | --- | --- |
| COc1ccc2c(c1)[n+](=O)c(C(=O)C/C(=N/OCCCc1ccccc1)C(=O)NC13CC4CC(CC(C4)C1)C3)c(C)n2[O-] | > 100 µM | > 100 | > 100 | > 100 µM | > 100 µM | > 100 µM | > 100 | > 100 µM |  |  |  |  |  |  |  |  |
| COc1cc2cc(Oc3ccc(NC(=O)Nc4ccc(Cl)c(C(F)(F)F)c4)cc3)c(C)nc2cc1OCCN1CCOCC1 | > 100 µM | 3.78 | 7.55 | 23.2 µM | 3.62 µM | 3.47 µM | 3.12 | 17.5 µM | 1450 | 1630 | 2320 | 2430 | 1.65 | 1520 | 1550 | 3340 |
| CCCCCCCC[C@@H](O)CC(=O)N[C@@H](CC(N)=O)C(=O)N[C@@H](CCC(N)=O)C(=O)N[C@@H](CC(=O)c1cc(C)cc(O)c1C(=O)c1c(O)cccc1O)CC(C)C | > 100 µM | 12 | > 100 | > 100 µM | 18.3 µM | 1.2 µM | 25.5 | > 100 µM | 398 | 399 | 1890 | 261 | 3.29 | 307 | 1590 | 12600 |
| CCc1ccccc1NC(=O)C1=C(C)NC(C)=C(C(=O)Nc2ccccc2CC)C1c1ccc2c(c1)OCO2 | 84.4 µM | > 100 | 47.8 | > 100 µM | > 100 µM | 84 µM | > 100 | > 100 µM |  |  |  |  |  |  |  |  |
| O=C(O)c1nn(-c2ccccc2-c2n[nH]c(=O)[nH]c2=O)c(=O)[nH]c1=O | > 100 µM | > 100 | > 100 | > 100 µM | > 100 µM | > 100 µM | > 100 | > 100 µM |  |  |  |  |  |  |  |  |
| NC1=NC(c2ccccc2)CC(c2cc(Cl)ccc2O)=N1 (centres undefined) | 51.8 µM | 33.7 | 40.1 | 42.1 µM | 29.3 µM | 31.6 µM | 33.5 | 33 µM |  |  |  |  |  |  |  |  |
| Cc1ccc(C(=O)N(CCCN)C(c2oc3cc(Cl)ccc3c(=O)c2Cc2ccccc2)C(C)C)cc1 (centres undefined) | 1.7 µM | 0.595 | 0.126 | 2.72 µM | 1.15 µM | 1.14 µM | 2.5 | 1.57 µM | < 10 | < 10 | < 10 |  | < 0.01 | < 10 | 1070 | < 10 |
| CCCCCCCC(=O)OCC/C=C/C1OC1C1OC(=O)/C=C\C=C\c2nc(oc2C)/C=C(/C)CCC2OC2C1OC(=O)NC(C)=O (centres undefined) | 3.98 µM | 0.193 | 2.07 | 0.918 µM | 0.495 µM | 0.142 µM | 0.159 | 1.33 µM | 65.1 | 58.1 | 114 | 26.2 | 0.0192 | 53.7 | 67.9 | 64.3 |
| COc1cc[nH]c1/C=C1\C(=O)Nc2ccc(F)c(C#CC3(O)CCNCC3)c21 | 0.836 µM | 0.372 | 0.228 | 2.27 µM | 0.747 µM | 1.55 µM | 1.39 | 2.61 µM | 77.9 | 30.3 | 53.2 | 383 | 0.0778 | 350 | 140 | 17.2 |
| O=C1C(Cl)=C(NCCN2CCOCC2)C(=O)c2ncccc21 | 2.68 µM and 5.29 µM | 3.43 | 4.44 | 3.73 µM and 3.4 µM | 3.23 µM and 5.37 µM | 3.69 µM and 3.01 µM | 3.29 | 3.36 µM and 7.23 µM | 2340 | 1610 | 1430 | 1710 | 1.95 |  |  | 2260 |
| CC/C=C\C[C@@H](O)C/C=C1/C(=O)C=C[C@H]1C/C=C\CCCC(=O)OC | 4.36 µM | 4.66 | 5.48 | 12.6 µM | 11.8 µM | 10.3 µM | 5.34 | 19 µM | 461 | 1800 | 1960 | 3310 | 3.45 | 3100 | 2100 | 6490 |
| Cc1ccc(C(=O)NC(C)C)cc1-c1ccc(C(=O)NCC2CC2)cc1 | > 25 µM | > 25 | > 25 | > 25 µM | > 25 µM | > 25 µM | > 25 | > 25 µM | > 25000 | > 25000 | > 25000 | > 25000 | > 25 | > 25000 | > 25000 | > 25000 |
| COc1ccc2nc3c(C(=O)NCCN(C)C)cccc3nc2c1 | > 100 µM | 22.9 | > 100 | 93.5 µM | > 1 µM | 59.9 µM | 26.1 | 47.4 µM |  |  |  |  |  |  |  |  |
| O=C1Nc2ccccc2C1(c1ccc(O)cc1)c1ccc(O)cc1 | 99.8 µM | 4.38 | 63 | 39.3 µM | 37.9 µM | 0.899 µM | 65.7 | 54.2 µM | 32700 | 125 | 22900 | 10200 | 18.5 | 110 | 26900 | 22800 |
| O=C1c2cccc([N+](=O)[O-])c2C(=O)N1c1ncn[nH]1 | > 100 µM | > 100 | > 100 | > 100 µM | > 100 µM | > 100 µM | > 100 | > 100 µM |  |  |  |  |  |  |  |  |
| CC1CN1C(=O)NCCCCCCNC(=O)N1CC1C (centres undefined) | > 93 µM | > 100 | > 100 | > 100 µM | > 66.6 µM | > 100 µM | > 100 | > 100 µM |  |  |  |  |  |  |  |  |
| CS(=O)(=O)CCNCc1ccc(-c2ccc3ncnc(Nc4ccc(OCc5ccccc5)cc4)c3c2)o1 | > 15.6 µM | 11.4 | 14 | > 18.8 µM | > 25 µM | > 25 µM | 7.83 | > 25 µM | 631 | 5000 | 6400 | 3450 | 3.73 | 8470 | 4040 | 401 |
| Nc1nc2c(nnn2C2CC(O)C(CO)O2)c(=O)[nH]1 (centres undefined) | > 100 µM | 6.3 | > 38.1 | > 100 µM | > 100 µM | > 69 µM | > 100 | > 23.4 µM | 2390 | 1890 | 1150 | 9490 | 7.4 | 4780 | 20400 | 937 |
